Experiment [1] has as its target Tyrosine-protein kinase SYK (Homo sapiens) (UniProt P43405). Put plainly: Syk (h) Upstate kinase activity assay. Particulars: Compound concentration 10.0 uM.
Experiment [2] concerns the target T1, Dual specificity mitogen-activated protein kinase kinase 6 (Homo sapiens) (UniProt P52564).
T1 sequence (whole entry): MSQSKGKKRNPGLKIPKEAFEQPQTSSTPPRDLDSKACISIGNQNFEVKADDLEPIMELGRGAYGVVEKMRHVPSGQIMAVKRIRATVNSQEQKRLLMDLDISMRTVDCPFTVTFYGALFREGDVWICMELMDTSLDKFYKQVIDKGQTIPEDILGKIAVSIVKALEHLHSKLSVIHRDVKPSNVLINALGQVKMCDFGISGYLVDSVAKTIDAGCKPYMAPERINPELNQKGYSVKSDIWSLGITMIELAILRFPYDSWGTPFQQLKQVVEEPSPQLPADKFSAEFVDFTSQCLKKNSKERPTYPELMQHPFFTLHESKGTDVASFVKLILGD
Put plainly: MKK6 (h) Upstate kinase activity assay. Particulars: Compound concentration 10.0 uM.

For experiment [3], the target named is T2, Mitogen-activated protein kinase 12 (Homo sapiens) (UniProt P53778).
T2 sequence (whole entry): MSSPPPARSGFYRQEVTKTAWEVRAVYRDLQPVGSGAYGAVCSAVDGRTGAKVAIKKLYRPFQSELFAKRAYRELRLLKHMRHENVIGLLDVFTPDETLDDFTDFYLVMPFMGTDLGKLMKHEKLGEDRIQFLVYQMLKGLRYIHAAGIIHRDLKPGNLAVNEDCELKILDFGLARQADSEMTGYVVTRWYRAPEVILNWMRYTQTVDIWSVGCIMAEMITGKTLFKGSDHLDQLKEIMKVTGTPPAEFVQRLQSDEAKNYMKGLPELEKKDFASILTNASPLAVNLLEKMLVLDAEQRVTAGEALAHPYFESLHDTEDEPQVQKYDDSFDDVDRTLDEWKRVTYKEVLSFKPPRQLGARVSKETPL
Put plainly: SAPK3 (h) Upstate kinase activity assay. The following applies: Compound concentration 10.0 uM.

Experiment [4] has as its target T3, Tyrosine-protein kinase receptor TYRO3 (Homo sapiens) (UniProt Q06418).
T3 sequence (whole entry): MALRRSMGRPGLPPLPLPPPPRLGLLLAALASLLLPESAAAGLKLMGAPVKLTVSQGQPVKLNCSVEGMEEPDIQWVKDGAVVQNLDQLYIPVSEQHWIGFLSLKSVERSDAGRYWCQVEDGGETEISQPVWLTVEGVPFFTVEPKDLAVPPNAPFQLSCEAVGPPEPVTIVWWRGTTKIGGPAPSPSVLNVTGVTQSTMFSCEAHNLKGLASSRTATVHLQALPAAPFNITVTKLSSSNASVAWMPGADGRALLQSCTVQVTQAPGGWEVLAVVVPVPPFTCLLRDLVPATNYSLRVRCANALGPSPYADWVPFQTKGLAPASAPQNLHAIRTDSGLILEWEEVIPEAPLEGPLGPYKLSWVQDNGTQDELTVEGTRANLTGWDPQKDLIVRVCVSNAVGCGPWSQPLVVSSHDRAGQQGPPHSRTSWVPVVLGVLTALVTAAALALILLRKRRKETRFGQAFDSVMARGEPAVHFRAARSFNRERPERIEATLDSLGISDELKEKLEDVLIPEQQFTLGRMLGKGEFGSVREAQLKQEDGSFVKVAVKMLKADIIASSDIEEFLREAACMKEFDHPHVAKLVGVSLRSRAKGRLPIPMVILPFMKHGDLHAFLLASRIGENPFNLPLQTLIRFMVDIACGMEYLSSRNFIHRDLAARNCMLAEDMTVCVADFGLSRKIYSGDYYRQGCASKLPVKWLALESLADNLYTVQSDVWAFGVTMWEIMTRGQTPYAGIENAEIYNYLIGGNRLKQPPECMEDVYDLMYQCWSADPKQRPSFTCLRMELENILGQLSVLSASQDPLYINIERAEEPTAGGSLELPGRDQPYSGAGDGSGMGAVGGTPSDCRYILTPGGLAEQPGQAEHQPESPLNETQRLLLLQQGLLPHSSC
Put plainly: Rse (h) Upstate kinase activity assay. Particulars: Compound concentration 10.0 uM.

For experiment [5], the target named is Ribosomal protein S6 kinase beta-1 (Homo sapiens) (UniProt P23443). Put plainly: […] (h) Upstate kinase activity assay. Particulars: Compound concentration 10.0 uM.
Experiment [6] deals with RAC-alpha serine/threonine-protein kinase (Homo sapiens) (UniProt P31749). Put plainly: PKBalpha (h) Upstate kinase activity assay. Particulars: Compound concentration 10.0 uM.
In experiment [7] the target is Tyrosine-protein kinase BTK (Homo sapiens) (UniProt Q06187). Put plainly: BTK (h) Upstate kinase activity assay. Particulars: Compound concentration 10.0 uM.
The target in experiment [8] is Protein kinase C theta type (Homo sapiens) (UniProt Q04759). Put plainly: PKCtheta (h) Upstate kinase activity assay. Particulars: Compound concentration 10.0 uM.
The next experiment relates to Saccharomyces cerevisiae. Put plainly: CK1 (y) Upstate kinase activity assay. Particulars: Compound concentration 10.0 uM.
Experiment [9] deals with Mitogen-activated protein kinase 11 (Homo sapiens) (UniProt Q15759). Put plainly: SAPK2b (h) Upstate kinase activity assay. Particulars: Compound concentration 10.0 uM.
In experiment [10] the target is Tyrosine-protein kinase ABL1 (Homo sapiens) (UniProt P00519). Put plainly: Abl (h) Upstate kinase activity assay. Particulars: Compound concentration 10.0 uM.
In the next experiment the test system is ACHN. Put plainly: Kidney ACHN cell line MDS Pharma Services Proliferation Assay. Type of experiment: functional, cell-based, Homo sapiens.
Experiment [11] addresses Tyrosine-protein kinase ABL2 (Homo sapiens) (UniProt P42684). Put plainly: Arg (h) Upstate kinase activity assay. Particulars: Compound concentration 10.0 uM.
Experiment [12] deals with Protein kinase C beta type (Homo sapiens) (UniProt P05771). Put plainly: PKCBI (h) Upstate kinase activity assay. The following applies: Compound concentration 10.0 uM.
The target in experiment [13] is Cyclin-dependent kinase 5/CDK5 activator 1 (Homo sapiens) (UniProt Q00535+Q15078). Put plainly: CDK5/ p35 (h) Upstate kinase activity assay. Type of experiment: protein-complex assay. Particulars: Compound concentration 10.0 uM.
Experiment [14] has as its target Casein kinase II subunit alpha (Homo sapiens) (UniProt P68400). Put plainly: CK2 (h) Upstate kinase activity assay. The following applies: Compound concentration 10.0 uM.
The target in experiment [15] is Protein kinase C eta type (Homo sapiens) (UniProt P24723). Put plainly: PKCeta (h) Upstate kinase activity assay. The following applies: Compound concentration 10.0 uM.
The species named for another experiment is Rattus norvegicus. Particulars: Compound concentration 10.0 uM.
For experiment [16], the target named is AMP-activated protein kinase, AMPK (Rattus norvegicus) (UniProt P54645+Q09137+P80386+P80385+Q9QZH4+Q6V7V4+D4A7E4). Put plainly: AMPK (r) Upstate kinase activity assay. Type of experiment: protein-complex assay. The following applies: Compound concentration 10.0 uM.
In experiment [17] the target is Alpha-1D adrenergic receptor (Homo sapiens) (UniProt P25100). The following applies: Compound concentration 10.0 uM.
Experiment [18] concerns Epidermal growth factor receptor (Homo sapiens), P00533 [G719C]. Particulars: Compound concentration 100.0 nM.
Experiment [19] concerns Epidermal growth factor receptor (Homo sapiens), P00533 [L858R]. The following applies: Compound concentration 100.0 nM.

Broadly, the inhibition is the drop in the measured response relative to a control, in per cent. What is called IC50 is the point on the concentration scale where inhibition reaches its midpoint. Low values mean inhibition by little substance, high ones a need for much substance. As usually defined, the TGI is the concentration at which net growth stops. A low value points to greater sensitivity of the cells. The residual activity is the signal under treatment as a percentage of the control signal.

Casein kinase II subunit alpha (Homo sapiens), sequence (P68400 whole entry, looked up): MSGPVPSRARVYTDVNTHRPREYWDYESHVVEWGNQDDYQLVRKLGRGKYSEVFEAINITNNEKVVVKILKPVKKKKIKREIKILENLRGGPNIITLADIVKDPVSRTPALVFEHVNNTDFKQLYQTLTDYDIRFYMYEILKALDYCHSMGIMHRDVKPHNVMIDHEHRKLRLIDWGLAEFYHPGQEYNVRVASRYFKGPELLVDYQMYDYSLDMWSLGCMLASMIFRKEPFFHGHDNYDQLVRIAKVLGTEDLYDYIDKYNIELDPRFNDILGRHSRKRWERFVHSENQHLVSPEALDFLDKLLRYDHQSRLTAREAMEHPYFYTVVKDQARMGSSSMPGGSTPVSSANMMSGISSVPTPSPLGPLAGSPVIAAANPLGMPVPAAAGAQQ
Protein kinase C theta type (Homo sapiens), sequence (Q04759 whole entry, looked up): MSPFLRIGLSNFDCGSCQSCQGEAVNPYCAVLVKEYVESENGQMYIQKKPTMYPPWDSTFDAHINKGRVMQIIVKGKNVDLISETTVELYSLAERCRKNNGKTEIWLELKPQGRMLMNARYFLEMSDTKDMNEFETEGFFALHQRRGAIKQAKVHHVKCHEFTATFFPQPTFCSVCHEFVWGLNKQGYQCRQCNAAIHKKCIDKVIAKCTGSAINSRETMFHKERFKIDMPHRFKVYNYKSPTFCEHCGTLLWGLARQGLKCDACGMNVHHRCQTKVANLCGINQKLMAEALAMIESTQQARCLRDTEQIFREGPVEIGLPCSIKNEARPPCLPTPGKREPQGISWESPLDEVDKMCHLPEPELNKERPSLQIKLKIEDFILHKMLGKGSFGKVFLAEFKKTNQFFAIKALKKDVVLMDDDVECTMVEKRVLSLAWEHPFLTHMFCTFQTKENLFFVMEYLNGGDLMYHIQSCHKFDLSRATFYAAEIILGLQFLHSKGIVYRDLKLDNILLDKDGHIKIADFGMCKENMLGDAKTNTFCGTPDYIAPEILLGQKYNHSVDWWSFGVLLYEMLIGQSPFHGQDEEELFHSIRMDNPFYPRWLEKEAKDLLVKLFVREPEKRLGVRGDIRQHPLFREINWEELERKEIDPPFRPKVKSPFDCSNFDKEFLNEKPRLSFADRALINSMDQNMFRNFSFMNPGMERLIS
Protein kinase C beta type (Homo sapiens), sequence (P05771 2-671 limits assumed): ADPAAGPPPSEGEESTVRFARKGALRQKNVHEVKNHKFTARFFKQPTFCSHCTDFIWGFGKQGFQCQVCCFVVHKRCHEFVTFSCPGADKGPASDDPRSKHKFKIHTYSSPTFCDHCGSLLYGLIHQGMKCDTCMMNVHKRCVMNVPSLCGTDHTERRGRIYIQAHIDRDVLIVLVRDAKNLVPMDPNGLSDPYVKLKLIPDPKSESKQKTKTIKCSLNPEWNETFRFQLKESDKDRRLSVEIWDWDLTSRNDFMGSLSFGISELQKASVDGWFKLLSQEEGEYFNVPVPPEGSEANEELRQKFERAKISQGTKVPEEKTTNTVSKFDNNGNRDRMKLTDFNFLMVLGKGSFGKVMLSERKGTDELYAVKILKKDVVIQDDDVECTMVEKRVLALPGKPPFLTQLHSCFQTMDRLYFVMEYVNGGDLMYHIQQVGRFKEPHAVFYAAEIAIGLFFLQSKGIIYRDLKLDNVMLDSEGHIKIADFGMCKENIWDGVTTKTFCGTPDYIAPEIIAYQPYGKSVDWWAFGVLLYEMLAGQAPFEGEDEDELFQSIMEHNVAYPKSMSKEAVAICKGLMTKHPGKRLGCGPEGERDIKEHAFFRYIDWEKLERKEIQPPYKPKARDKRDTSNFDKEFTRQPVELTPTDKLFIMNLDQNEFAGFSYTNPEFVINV
Cyclin-dependent kinase 5/CDK5 activator 1 (Homo sapiens), sequence (Q00535 whole entry): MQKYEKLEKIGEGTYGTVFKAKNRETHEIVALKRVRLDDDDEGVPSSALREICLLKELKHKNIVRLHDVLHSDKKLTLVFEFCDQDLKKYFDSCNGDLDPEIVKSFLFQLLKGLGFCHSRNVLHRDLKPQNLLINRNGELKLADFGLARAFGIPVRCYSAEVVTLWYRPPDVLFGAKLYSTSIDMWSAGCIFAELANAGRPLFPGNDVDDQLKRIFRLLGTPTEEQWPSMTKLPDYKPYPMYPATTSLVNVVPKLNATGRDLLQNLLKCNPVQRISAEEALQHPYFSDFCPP
Cyclin-dependent kinase 5/CDK5 activator 1 (Homo sapiens), sequence (Q15078 99-307 partner limits assumed): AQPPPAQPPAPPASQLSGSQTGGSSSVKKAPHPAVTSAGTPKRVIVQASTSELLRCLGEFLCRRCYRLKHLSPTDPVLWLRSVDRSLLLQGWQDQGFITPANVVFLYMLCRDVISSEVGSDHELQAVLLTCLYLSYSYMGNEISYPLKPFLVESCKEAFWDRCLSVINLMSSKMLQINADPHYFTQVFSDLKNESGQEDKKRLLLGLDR
Tyrosine-protein kinase ABL2 (Homo sapiens), sequence (P42684 whole entry): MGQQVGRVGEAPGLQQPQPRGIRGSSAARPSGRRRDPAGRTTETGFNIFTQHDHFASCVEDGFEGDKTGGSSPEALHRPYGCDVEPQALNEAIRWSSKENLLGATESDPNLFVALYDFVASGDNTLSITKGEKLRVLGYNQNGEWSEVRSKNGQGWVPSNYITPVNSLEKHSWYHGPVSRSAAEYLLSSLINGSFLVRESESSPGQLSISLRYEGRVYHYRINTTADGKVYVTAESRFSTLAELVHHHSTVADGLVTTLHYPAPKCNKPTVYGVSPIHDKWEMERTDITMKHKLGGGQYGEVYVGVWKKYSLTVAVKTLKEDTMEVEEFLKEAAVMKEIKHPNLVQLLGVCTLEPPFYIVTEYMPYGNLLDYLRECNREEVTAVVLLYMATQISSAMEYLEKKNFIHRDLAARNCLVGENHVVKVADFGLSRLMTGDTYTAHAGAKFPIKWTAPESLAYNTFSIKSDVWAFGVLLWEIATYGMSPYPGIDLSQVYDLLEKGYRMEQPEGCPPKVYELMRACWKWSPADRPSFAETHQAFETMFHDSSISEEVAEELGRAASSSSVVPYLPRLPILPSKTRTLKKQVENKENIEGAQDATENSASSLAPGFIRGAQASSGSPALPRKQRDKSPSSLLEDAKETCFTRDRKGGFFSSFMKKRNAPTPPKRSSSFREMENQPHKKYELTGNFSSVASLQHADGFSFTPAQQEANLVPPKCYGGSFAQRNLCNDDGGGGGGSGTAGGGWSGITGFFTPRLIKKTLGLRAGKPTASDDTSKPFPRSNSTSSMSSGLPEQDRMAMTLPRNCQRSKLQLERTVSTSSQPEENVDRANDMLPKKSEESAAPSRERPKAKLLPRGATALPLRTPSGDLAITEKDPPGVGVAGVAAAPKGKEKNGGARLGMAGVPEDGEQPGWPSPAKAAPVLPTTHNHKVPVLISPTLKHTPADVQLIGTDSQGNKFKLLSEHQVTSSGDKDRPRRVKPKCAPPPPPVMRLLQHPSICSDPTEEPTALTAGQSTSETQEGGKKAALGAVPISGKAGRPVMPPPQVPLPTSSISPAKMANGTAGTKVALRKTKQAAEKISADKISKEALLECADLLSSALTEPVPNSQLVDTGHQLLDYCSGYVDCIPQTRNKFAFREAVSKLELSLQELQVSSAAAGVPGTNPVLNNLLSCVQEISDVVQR
Mitogen-activated protein kinase 11 (Homo sapiens), sequence (Q15759 whole entry): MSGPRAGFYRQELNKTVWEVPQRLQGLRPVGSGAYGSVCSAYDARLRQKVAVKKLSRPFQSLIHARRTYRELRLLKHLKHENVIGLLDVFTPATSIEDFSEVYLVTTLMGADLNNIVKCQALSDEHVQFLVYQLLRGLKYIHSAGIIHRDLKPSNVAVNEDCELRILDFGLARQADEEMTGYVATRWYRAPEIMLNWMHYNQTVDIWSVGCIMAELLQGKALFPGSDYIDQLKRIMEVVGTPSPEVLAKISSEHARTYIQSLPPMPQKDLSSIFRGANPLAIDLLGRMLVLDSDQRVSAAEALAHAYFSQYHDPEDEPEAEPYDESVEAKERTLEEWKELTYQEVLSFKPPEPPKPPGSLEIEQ
RAC-alpha serine/threonine-protein kinase (Homo sapiens), sequence (P31749 whole entry): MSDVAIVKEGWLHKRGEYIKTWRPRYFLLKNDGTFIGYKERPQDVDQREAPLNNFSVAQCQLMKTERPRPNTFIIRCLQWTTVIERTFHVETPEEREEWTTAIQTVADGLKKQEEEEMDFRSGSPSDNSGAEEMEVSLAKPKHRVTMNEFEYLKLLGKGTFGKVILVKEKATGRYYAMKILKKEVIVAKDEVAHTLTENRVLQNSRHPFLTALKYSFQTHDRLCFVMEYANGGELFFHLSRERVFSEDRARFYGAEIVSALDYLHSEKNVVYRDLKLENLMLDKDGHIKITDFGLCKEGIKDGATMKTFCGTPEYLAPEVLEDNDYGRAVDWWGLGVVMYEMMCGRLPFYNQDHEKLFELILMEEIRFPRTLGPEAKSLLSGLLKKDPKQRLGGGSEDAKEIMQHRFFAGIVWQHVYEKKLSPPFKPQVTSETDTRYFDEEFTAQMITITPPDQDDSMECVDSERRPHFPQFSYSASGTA
Alpha-1D adrenergic receptor (Homo sapiens), sequence (P25100 whole entry): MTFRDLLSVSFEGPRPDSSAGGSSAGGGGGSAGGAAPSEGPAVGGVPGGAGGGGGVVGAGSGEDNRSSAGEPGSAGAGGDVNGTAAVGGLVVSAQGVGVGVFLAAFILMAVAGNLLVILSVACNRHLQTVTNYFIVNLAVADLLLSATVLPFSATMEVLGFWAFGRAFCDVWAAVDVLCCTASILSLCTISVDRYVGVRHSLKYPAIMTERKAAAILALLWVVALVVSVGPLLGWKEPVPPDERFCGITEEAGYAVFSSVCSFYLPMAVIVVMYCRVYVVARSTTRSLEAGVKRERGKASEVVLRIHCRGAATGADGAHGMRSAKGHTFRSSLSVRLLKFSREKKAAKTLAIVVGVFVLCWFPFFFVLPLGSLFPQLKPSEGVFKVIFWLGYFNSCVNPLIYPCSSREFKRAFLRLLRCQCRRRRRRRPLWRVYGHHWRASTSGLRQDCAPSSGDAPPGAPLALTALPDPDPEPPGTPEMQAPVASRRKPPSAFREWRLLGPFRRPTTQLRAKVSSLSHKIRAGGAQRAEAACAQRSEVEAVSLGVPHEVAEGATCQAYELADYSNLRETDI

In the case of `Cc1c[nH]c2nccc(Oc3c(F)cc(Nc4cc(Cl)nc(N)n4)cc3F)c12` [BAY-549], the inhibition in experiment [1] is 20%; in experiment [2], 6%; in [3] it was 4%; in experiment [4], 15%; in [5], 84%; in [6], 84%. The inhibition is 1% in experiment [7]; 42% in [8]; 44% with Saccharomyces cerevisiae; 1% in experiment [9]; 14% in [10]; 37% in experiment [11]. The inhibition in [12] is 8%; in experiment [13], 7%; in [14] it was 6%; in experiment [15], 24%; in the experiment listed under Rattus norvegicus it was 24.9%; in [16], 8%. In the experiment with ACHN, the “Mean % growth (n = 2) for 10.0 µM probe concentration” value is given as 27%. In addition, in the experiment on ACHN (Homo sapiens, ACHN), the midpoint of inhibition, the IC50, lay at 3.6 µM. The molecule also showed a TGI in the experiment on ACHN (Homo sapiens, ACHN) of 32 µM. Further, in the experiment on ACHN (Homo sapiens, ACHN, read-out: LC50 (the source's name)), the CC50 is > 100 µM. Moreover, the “Mean % growth (n = 2) for 0.01 µM probe concentration” value in the experiment on ACHN (± SEM 1 % growth) was 103%. In the experiment on ACHN (± SEM 2 % growth), the “Mean % growth (n = 2) for 0.1 µM probe concentration” value was determined as 106%. In the experiment with ACHN (± SEM 4 % growth), the “Mean % growth (n = 2) for 100.0 µM probe concentration” value was -25%. Moreover, the “Mean % growth (n = 2) for 1.0 µM probe concentration” value in the experiment with ACHN (± SEM 10 % growth) was 60%.

Regarding `Cn1cc(Cl)c2c(Oc3c(F)cc(Nc4cc(Cl)nc(N)n4)cc3F)ccnc21` [BAY-4900], the inhibition in experiment [17] is -6.73%. The residual activity was 95% in experiment [18] and 98% in experiment [19].

The record behind these values is ChEMBL document CHEMBL4507274 (2021).
